Measurements as given in patent US20050074463A1, “Therapeutic vaccination method, mutated peptides of hiv reverse transciptase and their use for vaccination and diagnostic purposes” (Universite Pierre et Marie Curie-paris VI, priority 2001, published 2005).

Tests used:
[1] = system: gamma-IFN-producing CD8 cells in PBMCs from patient 201#5; experiment: ELISpot-γIFN assay, ex vivo recognition of epitope peptides by PBMCs; settings: PBMCs from patient 201#5 treated with NRTIs and carrying RT mutation 41 (M>L), no prior stimulation
[2] = target: Mutated peptide 33-41 of HIV-1 reverse transcriptase (mutation 41 M>L) (HIV-1)
[3] = target: Wild-type peptide 33-41 of HIV-1 reverse transcriptase (HIV-1)

| Substance | frequency of recognition (cells secreting γIFN), SFC/10^6 PBMCs [1] | SFC/10^6 PBMCs (ELISpot gamma-IFN) (SFC/10^6 PBMCs) [2] | SFC/10^6 PBMCs (ELISpot gamma-IFN) (SFC/10^6 PBMCs) [3] |
| --- | --- | --- | --- |
| ALVEICTEL [mutated peptide 33-41] | 95 SFC/10^6 PBMCs |  |  |
| ALVEICTEM [wild-type peptide 33-41] | 3 SFC/10^6 PBMCs |  |  |
| PBMCs from patient 201#5 (cells without a defined receptor) |  | 95 | 3 |
